Key:
Format in all cases: cell-based
[1] = tested on: SMMC-7221; experiment: Cell proliferative assay (MTT), SMMC-7221; settings: 72 h incubation, read-out: IC50s SMMC-7221
Procedure: (§1) The synthesized compounds were evaluated for their cytotoxin activity against suspended tumor cells. These cells were seeded on 96-well plates and incubated for 24 h. Selected compounds were added at various doses and incubated for 72 h, MTT was then added, and the absorbance was measured at a wavelength of 590 nm. IC50 values are expressed as the mean±SEM from the dose-response curves of at least three independent experiments.

[2] = tested on: A375; experiment: Cell proliferative assay (MTT), A375; settings: Homo sapiens, A-375, 72 h incubation, read-out: IC50s A375
Procedure: as §1

[3] = tested on: HepG2; experiment: Cell proliferative assay (MTT), HepG2; settings: Homo sapiens, 72 h incubation, read-out: IC50s HepG2
Procedure: as §1

[4] = tested on: A549; experiment: Cell proliferative assay (MTT), A549; settings: Homo sapiens, 72 h incubation, read-out: IC50s A549
Procedure: as §1

[5] = tested on: K562; experiment: Cell proliferative assay (MTT), K562; settings: Homo sapiens, 72 h incubation, read-out: IC50s K562
Procedure: as §1

[6] = tested on: LO2; experiment: Cell proliferative assay (MTT), LO2; settings: Homo sapiens, L02, 72 h incubation, read-out: IC50s LO2
Procedure: as §1

| Structure (SMILES) | IC50 [1] | IC50 [2] | IC50 [3] | IC50 [4] | IC50 [5] | IC50 [6] |
| --- | --- | --- | --- | --- | --- | --- |
| COc1cccc(C(=O)Oc2cc(/C=C/C(=O)c3ccc(OC)c4c3OC(C)(C)C=C4)ccc2OC)c1 [SKLBC-63, (E)-2-methoxy-5-(3-(5-methoxy-2,2-dimethyl-2H-chromen-8-yl)-3-oxoprop-1-en-1-yl)phenyl 3-methoxybenzoate] | > 10 µM | > 10 µM | > 10 µM | > 10 µM | > 10 µM | – |
| CCN(CC)c1cc(/C=C/C(=O)c2ccc(OC)c3c2OC(C)(C)C=C3)ccc1OC [SKLBC-86, (E)-3-(3-(diethylamino)-4-methoxyphenyl)-1-(5-methoxy-2,2-dimethyl-2H-chromen-8-yl)prop-2-en-1-one] | > 10 µM | > 10 µM | > 10 µM | > 10 µM | > 10 µM | > 20 µM |
| COc1ccc(/C=C/C(=O)Oc2cc(/C=C/C(=O)c3ccc(OC)c4c3OC(C)(C)C=C4)ccc2OC)cc1 [SKLBC-64, (E)-2-methoxy-5-((E)-3-(5-methoxy-2,2-dimethyl-2H-chromen-8-yl)-3-oxoprop-1-en-1-yl)phenyl 3-(4-methoxyphenyl)acrylate] | > 10 µM | > 10 µM | > 10 µM | > 10 µM | > 10 µM | – |
| C=CCOc1cc(/C=C/C(=O)c2ccc(OC)c3c2OC(C)(C)C=C3)ccc1OC [SKLBC-72, (E)-3-(3-(allyloxy)-4-methoxyphenyl)-1-(5-methoxy-2,2-dimethyl-2H-chromen-8-yl)prop-2-en-1-one] | > 10 µM | > 10 µM | > 10 µM | > 10 µM | > 10 µM | > 20 µM |
| COc1ccc(/C=C/C(=O)c2ccc(OC)c3c2OC(C)(C)C=C3)cc1OC(=O)c1ccc(Br)cc1 [SKLBC-66, (E)-2-methoxy-5-(3-(5-methoxy-2,2-dimethyl-2H-chromen-8-yl)-3-oxoprop-1-en-1-yl)phenyl 4-bromobenzoate] | 2.34 µM | 0.413 µM | 0.368 µM | – | 1.11 µM | 8.4 µM |
| COc1ccc(/C=C/C(=O)c2ccc(OC)c3c2OC(C)(C)C=C3)cc1OCCCN(C)C [SKLBC-61, (E)-3-(3-(3-(dimethylamino)propoxy)-4-methoxyphenyl)-1-(5-methoxy-2,2-dimethyl-2H-chromen-8-yl)prop-2-en-1-one] | 1.15 µM | 1.05 µM | 0.44 µM | 0.44 µM | 0.58 µM | > 10 µM |
| COc1ccc(/C=C/C(=O)c2ccc(OC)c3c2OC(C)(C)C=C3)cc1OC(=O)C12CC3CC(CC(C3)C1)C2 [SKLBC-78] | > 10 µM | 1.06 µM | 2.52 µM | 6.4 µM | 2.83 µM | 5.58 µM |
| CNc1cc(/C=C/C(=O)c2ccc(OC)c3c2OC(C)(C)C=C3)ccc1OC [SKLBC-85, (E)-1-(5-methoxy-2,2-dimethyl-2H-chromen-8-yl)-3-(4-methoxy-3-(methylamino)phenyl)prop-2-en-1-one] | > 10 µM | > 10 µM | > 10 µM | > 10 µM | > 10 µM | > 20 µM |
| COc1ccc(/C=C/C(=O)c2ccc(OC)c3c2OC(C)(C)C=C3)cc1OC(=O)Cc1ccc(Cl)c(Cl)c1 [SKLBC-67, (E)-2-methoxy-5-(3-(5-methoxy-2,2-dimethyl-2H-chromen-8-yl)-3-oxoprop-1-en-1-yl)phenyl 2-(3,4-dichlorophenyl)acetate] | 1.9 µM | 0.105 µM | 0.195 µM | 0.86 µM | 0.43 µM | 10 µM |
| CCCCC(=O)Oc1cc(/C=C/C(=O)c2ccc(OC)c3c2OC(C)(C)C=C3)ccc1OC [SKLBC-79, (E)-2-methoxy-5-(3-(5-methoxy-2,2-dimethyl-2H-chromen-8-yl)-3-oxoprop-1-en-1-yl)phenyl pentanoate] | 1.03 µM | 0.378 µM | 0.09 µM | 1.18 µM | 0.24 µM | > 10 µM |
| COc1ccc(/C=C/C(=O)c2ccc(OC)c3c2OC(C)(C)C=C3)cc1OS(=O)(=O)Cc1ccccc1 [SKLBC-70, (E)-2-methoxy-5-(3-(5-methoxy-2,2-dimethyl-2H-chromen-8-yl)-3-oxoprop-1-en-1-yl)phenyl phenylmethanesulfonate] | > 10 µM | > 10 µM | > 10 µM | > 10 µM | > 10 µM | > 10 µM |
| COc1ccc(/C=C/C(=O)c2ccc(OC)c3c2OC(C)(C)C=C3)cc1OS(C)(=O)=O [SKLBC-77, (E)-2-methoxy-5-(3-(5-methoxy-2,2-dimethyl-2H-chromen-8-yl)-3-oxoprop-1-en-1-yl)phenyl methanesulfonate] | > 10 µM | > 10 µM | 9 µM | > 10 µM | 9.24 µM | > 10 µM |
| COc1ccc(/C=C/C(=O)c2ccc(OC)c3c2OC(C)(C)C=C3)cc1OC(=O)Cc1cccc(C(F)(F)F)c1 [SKLBC-62, (E)-2-methoxy-5-(3-(5-methoxy-2,2-dimethyl-2H-chromen-8-yl)-3-oxoprop-1-en-1-yl)phenyl 2-(3-(trifluoromethyl)phenyl)acetate] | > 10 µM | > 10 µM | > 10 µM | > 10 µM | > 10 µM | – |
| COc1ccc(/C=C/C(=O)c2ccc(OC)c3c2OC(C)(C)C=C3)cc1OC(=O)CCl [SKLBC-74, (E)-2-methoxy-5-(3-(5-methoxy-2,2-dimethyl-2H-chromen-8-yl)-3-oxoprop-1-en-1-yl)phenyl 2-chloroacetate] | 2.73 µM | 0.245 µM | 0.09 µM | 0.226 µM | 0.202 µM | > 10 µM |
| COc1ccc(/C=C/C(=O)c2ccc(OC)c3c2OC(C)(C)C=C3)cc1NCc1ccccc1 [SKLBC-90, (E)-3-(3-(benzylamino)-4-methoxyphenyl)-1-(5-methoxy-2,2-dimethyl-2H-chromen-8-yl)prop-2-en-1-one] | > 10 µM | – | 4.85 µM | 10 µM | 9.28 µM | > 10 µM |
| CCN(CC)c1ccc(/C=C/C(=O)c2ccc(OC(=O)C3C4C[C@H]5C[C@@H](C4)C[C@@H]3C5)c3c2OC(C)(C)C=C3)cc1 (some centres unmarked) [SKLBC-56, (1r,3r,5r,7r)-8-((E)-3-(4-(diethylamino)phenyl)acryloyl)-2,2-dimethyl-2H-chromen-5-yl adamantane-2-carboxylate] | 0.59 µM | > 10 µM | 9.45 µM | 9.1 µM | – | > 10 µM |

Continued, in another order:

| IC50 [1] | IC50 [2] | IC50 [3] | IC50 [4] | IC50 [5] | Structure (SMILES) | IC50 [6] |
| --- | --- | --- | --- | --- | --- | --- |
| > 10 µM | > 10 µM | > 10 µM | > 10 µM | > 10 µM | COc1ccc(/C=C/C(=O)c2ccc(OC)c3c2OC(C)(C)C=C3)cc1NC(=O)Cc1cccc(C(F)(F)F)c1 [SKLBC-97, (E)-N-(2-methoxy-5-(3-(5-methoxy-2,2-dimethyl-2H-chromen-8-yl)-3-oxoprop-1-en-1-yl)phenyl)-2-(3-(trifluoromethyl)phenyl)acetamide] | > 10 µM |
| > 10 µM | > 10 µM | > 10 µM | > 10 µM | > 10 µM | CCCCC(=O)Nc1cc(/C=C/C(=O)c2ccc(OC)c3c2OC(C)(C)C=C3)ccc1OC [SKLBC-95, (E)-N-(2-methoxy-5-(3-(5-methoxy-2,2-dimethyl-2H-chromen-8-yl)-3-oxoprop-1-en-1-yl)phenyl)pentanamide] | > 20 µM |
| > 10 µM | > 10 µM | > 10 µM | > 10 µM | 0.57 µM | COc1ccc(/C=C/C(=O)c2ccc(OC)c3c2OC(C)(C)C=C3)cc1N(Cc1ccccc1)Cc1ccccc1 [SKLBC-91, (E)-3-(3-(dibenzylamino)-4-methoxyphenyl)-1-(5-methoxy-2,2-dimethyl-2H-chromen-8-yl)prop-2-en-1-one] | > 10 µM |
| > 10 µM | > 10 µM | > 10 µM | > 10 µM | > 10 µM | COc1ccc(/C=C/C(=O)c2ccc(OC)c3c2OC(C)(C)C=C3)cc1NS(=O)(=O)Cc1ccccc1 [SKLBC-102, (E)-N-(2-methoxy-5-(3-(5-methoxy-2,2-dimethyl-2H-chromen-8-yl)-3-oxoprop-1-en-1-yl)phenyl)-1-phenylmethanesulfonamide] | > 20 µM |
| 5.1 µM | – | 4.55 µM | > 10 µM | 2.4 µM | CCC(=O)Nc1cc(/C=C/C(=O)c2ccc(OC)c3c2OC(C)(C)C=C3)ccc1OC [SKLBC-93, (E)-N-(2-methoxy-5-(3-(5-methoxy-2,2-dimethyl-2H-chromen-8-yl)-3-oxoprop-1-en-1-yl)phenyl)propionamide] | 7.8 µM |
| > 10 µM | > 10 µM | > 10 µM | > 10 µM | > 10 µM | C=CC(=O)Nc1cc(/C=C/C(=O)c2ccc(OC)c3c2OC(C)(C)C=C3)ccc1OC [SKLBC-94, (E)-N-(2-methoxy-5-(3-(5-methoxy-2,2-dimethyl-2H-chromen-8-yl)-3-oxoprop-1-en-1-yl)phenyl)acrylamide] | > 20 µM |
| > 10 µM | > 10 µM | > 10 µM | > 10 µM | > 10 µM | COc1ccc(/C=C/C(=O)c2ccc(OC)c3c2OC(C)(C)C=C3)cc1NS(=O)(=O)C1CC1 [SKLBC-100, (E)-N-(2-methoxy-5-(3-(5-methoxy-2,2-dimethyl-2H-chromen-8-yl)-3-oxoprop-1-en-1-yl)phenyl)cyclopropanesulfonamide] | > 20 µM |
